Measurements taken from the supplement of paper PMC10307832.

Assays:
Experiment in all cases: relative viability (nuclei count vs DMSO), 5 days (fraction); higher = more cells survive
[1] = compound: CC[C@H](Nc1ncnc2[nH]cnc12)c1nc2cccc(F)c2c(=O)n1-c1ccccc1 [Idelalisib] + Nc1ncn([C@H]2C[C@H](O)[C@@H](CO)O2)c(=O)n1 [Decitabine] (partner 2 µM)
How it was run: (§1)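 Relative viability is defined as nuclei in treated wells over nuclei in vehicle wells. Duplicate plates were run and medians reported. Lung cancer cell lines in 1536-well plates were dosed by pin tool one day after seeding, with one drug or with a fixed anchor-drug dose plus five library-drug doses (not always all listed) in √10 steps, and nuclei were counted after 5 days.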

[2] = compound: Nc1nc2[nH]cc(CCc3ccc(C(=O)N[C@@H](CCC(=O)O)C(=O)O)cc3)c2c(=O)[nH]1 [Pemetrexed] + COc1cccc2cc(-c3nc([C@H]4CC[C@H](C(=O)O)CC4)n4ncnc(N)c34)[nH]c12 [OSI-027] (partner 0.5 µM)
How it was run: as §1

[3] = compound: Nc1nc2[nH]cc(CCc3ccc(C(=O)N[C@@H](CCC(=O)O)C(=O)O)cc3)c2c(=O)[nH]1 [Pemetrexed] + Cc1nc(NC(=O)N2CCC[C@H]2C(N)=O)sc1-c1ccnc(C(C)(C)C(F)(F)F)c1 [Alpelisib] (partner 2 µM)
How it was run: as §1

[4] = compound: Nc1nc2[nH]cc(CCc3ccc(C(=O)N[C@@H](CCC(=O)O)C(=O)O)cc3)c2c(=O)[nH]1 [Pemetrexed] + O=C(CCCCCCC(=O)Nc1ccccc1)NO [Vorinostat] (partner 1 µM)
How it was run: as §1

Cell Line | relative viability ([1]; first compound 0.04 µM) | relative viability ([1]; first compound 0.1265 µM) | relative viability ([1]; first compound 0.4 µM) | relative viability ([1]; first compound 1.265 µM) | relative viability ([1]; first compound 4 µM) | relative viability ([2]; first compound 0.002 µM) | relative viability ([2]; first compound 0.006325 µM) | relative viability ([2]; first compound 0.02 µM) | relative viability ([2]; first compound 0.06325 µM) | relative viability ([2]; first compound 0.2 µM) | relative viability ([3]; first compound 0.002 µM) | relative viability ([3]; first compound 0.006325 µM) | relative viability ([3]; first compound 0.02 µM) | relative viability ([3]; first compound 0.06325 µM) | relative viability ([3]; first compound 0.2 µM) | relative viability ([4]; first compound 0.002 µM) | relative viability ([4]; first compound 0.006325 µM) | relative viability ([4]; first compound 0.02 µM) | relative viability ([4]; first compound 0.06325 µM) | relative viability ([4]; first compound 0.2 µM)
NCI-H838 | 0.467 | 0.44 | 0.478 | 0.563 | 0.464 | 0.454 | 0.292 | 0.379 | 0.244 | 0.197 | 0.989 | 0.878 | 1.14 | 0.934 | 0.372 | 0.72 | 0.727 | 0.781 | 0.661 | 0.308
NCI-H1355 | 0.346 | 0.326 | 0.364 | 0.369 | 0.324 | 0.391 | 0.389 | 0.466 | 0.509 | 0.387 | 0.805 | 0.768 | 0.822 | 0.843 | 0.858 | 0.526 | 0.603 | 0.667 | 0.599 | 0.62
NCI-H1395 | 0.724 | 0.657 | 0.726 | 0.712 | 0.607 | 0.6 | 0.641 | 0.727 | 0.675 | 0.694 | 0.964 | 0.916 | 1.14 | 1.14 | 1.02 | 0.513 | 0.871 | 0.959 | 0.7 | 0.738
NCI-H1437 | 0.55 | 0.59 | 0.62 | 0.635 | 0.55 |  | 0.828 | 0.803 | 0.432 | 0.346 | 0.877 | 0.939 | 0.884 | 0.506 | 0.227 | 0.853 | 0.813 | 0.806 | 0.596 | 0.364
NCI-H1651 | 0.717 | 0.374 | 0.611 | 0.578 | 0.651 | 0.61 | 0.66 | 0.805 | 0.624 | 0.717 | 0.951 | 0.948 | 0.939 | 0.952 | 0.93 | 0.553 | 0.562 | 0.642 | 0.44 | 0.548
NCI-H1666 | 0.801 | 0.587 | 0.743 | 0.761 | 0.701 | 0.961 | 0.758 | 0.955 | 0.906 | 0.79 | 1.02 | 0.853 | 0.969 | 0.88 | 0.595 | 1.01 | 0.95 | 1.03 | 0.924 | 0.863
NCI-H1734 | 0.522 | 0.461 | 0.497 | 0.518 | 0.496 | 0.65 | 0.564 | 0.675 | 0.571 | 0.53 | 0.694 | 0.731 | 0.629 | 0.632 | 0.698 | 0.794 | 0.725 | 0.931 | 0.778 | 0.708
